The subject of one data set is Raji lymphoma cells. The data set can be described thus: 2-NBDG uptake in Raji lymphoma cells versus peripheral blood white cells (PBMC). Type of data set: cell-based. The settings on record: Raji lymphoma cells vs PBMC; 200 uM; 40 min; 37° C.; fluorescence plate reader (FIG. 2). As to the method: Raji cells from culture one t-75 flask. Peripheral blood white cells from Stanford Blood Bank. Leukocytes were further separated by Ficoll separation (twice). These cells are referred to as PBMC (peripheral blood mononuclear cells). Phosphate-buffered saline. 2-NBDG, 0.1 M in water.
Culture medium with cells (either Raji or PBMC, 15 mL) were centrifuged for 10 min at 800×g. The pellet of cells was resuspended in PBS and centrifuged for 10 min at 800×g, and the resulting pellet was resuspended in 1.5 mL PBS. Cells were counted and adjusted to 1×10^6 per mL for both. Aliquots (100 uL) were placed into each of 2 tubes for each cell type, and the tubes were incubated at 37° C. for 15 min. The fluorescent deoxyglucose conjugate 2-NBDG was added to each tube to provide a concentration of 200 uM. At 40 min, the tubes were removed from the 37° C. bath and immediately placed on ice. The cells were washed twice with PBS and resuspended in 100 uL of PBS. A 20 uL aliquot was placed in each of 5 wells of an LJL 96-well plate, and fluorescence was counted by a LJL plate reader.

Data set [1] is described as follows: Solubility of the isolated conjugate in methanol and water. Type of data set: physicochemical. The settings on record: isolated product after preparative TLC. How it is done: More particularly, 2.2 mg (4 micromoles) of 6-((4,4-difluoro-5,7-dimethyl-4-bora-3a,4a-diaza-s-indacene-3-propionyl)amino)hexanoic acid, succinimidyl ester was dissolved in 0.3 ml of DMF followed by the addition of 6 mg (28 micromoles) of glucosamine HCL dissolved in 0.3 ml of water and 3.9 microliters (28 micromoles) of triethyl amine. The reaction was stirred for 24 hrs at room temperature, evaporated under reduced pressure, and dissolved in a minimum of methanol. This solution was spread on a preparative TLC plate (silica), dried, and developed with 2.5% water in acetonitrile. The plate was then dried and the product visualized with a UV light.
About 4 mg (4.8 micromoles) of Texas Red®-X, succinimidyl ester *single isomer* (816.94 MW, Molecular Probes, T-20175) were dissolved in 1.2 ml of methanol and combined with 4 mg (18 micromoles) of glucosamine HCl (Sigma) in 600 microliters of water. About 2.5 microliters (18 micromoles) of triethylamine were then added. The reaction was stirred overnight at 20° C. and then evaporated under reduced pressure. The gum was dissolved in methanol and spread on a preparative TLC plate (silica), dried, and developed with 10% water in acetonitrile. The plate was then dried and the product visualized with a UV light. […] B. Synthesis of 5-(and 6) Carboxynaphtofluorescein Glucosamine Conjugate [drawing 12]
About 8.3 mg (14 micromoles) of 5-(and-6)-carboxynaphthofluorescein, succinimidyl ester *mixed isomers* (MW 573.51, Molecular Probes, C-653) were dissolved in 2 ml of DMF, and 10 mg (46 micromoles) of glucosamine HCl (Sigma) in 1 ml of water was added. About 5.8 microliters (46 micromoles) of triethylamine were then added. The reaction was stirred overnight at 20° C. and then evaporated under reduced pressure. The gum was dissolved in 25% water in methanol and spread on a preparative TLC plate (silica), dried, and developed with 10% water in acetonitrile. The plate was then dried and the product visualized with a UV light. […] C. Synthesis of Glucosamine N-Methylanthranilamide Conjugate [drawing 13]

Regarding `O=C[C@H](Nc1ccc([N+](=O)[O-])c2nonc12)[C@@H](O)[C@H](O)[C@H](O)CO` [2-NBDG, 2-(N-(7-nitrobenz-2-oxa-1,3-diazol-4-yl)amino)-2-deoxyglucose], in the data set on Raji lymphoma cells, the “uptake by a cancer cell as compared to a normal cell” value is given as “preferred uptake”.
For the molecule `O=C(NC1C(O)OC(CO)C(O)C1O)c1ccc(C(=O)O)c(-c2c3ccc4cc(O)ccc4c3oc3c2ccc2cc(=O)ccc23)c1` (centres unmarked), in data set [1], the solubility in methanol entry was “soluble” and the solubility in water result was “sparingly soluble”.
The like results for `O=C(CCCCCNS(=O)(=O)c1ccc(C2=c3cc4c5c(c3Oc3c2cc2c6c3CCCN6CCC2)CCC[N+]=5CCC4)c(S(=O)(=O)[O-])c1)NC1C(O)OC(CO)C(O)C1O` (single isomer, unassigned) [Texas Red Glucosamine Conjugate] were, in that order, “soluble” and “sparingly soluble”.
